Test results reported in PubChem BioAssay AID256 (DTP/NCI, 2004).
Inconclusive results and toxic doses are left out. How the source made its calls: active means survival T/C of 150% or more; inactive means T/C below 125% in these data.

Test system: CD2F1 mice, L1210 leukemia ip, survival T/C
Assay: NCI In Vivo Anticancer Drug Screen. Data for tumor model L1210 Leukemia (intraperitoneal) in CD2F1 (CDF1) mice
Settings: higher = longer survival
Outline: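 Each value reflects a quotient of treated over vehicle control outcomes in mice with a transplanted tumor.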

[1] = endpoint: mean survival time, dose: 100.0 mg/kg/injection, schedule: Q04DX003 (ip), vehicle: saline with Tween-80
[2] = endpoint: mean survival time, dose: 200.0 mg/kg/injection, schedule: Q04DX003 (ip), vehicle: saline with Tween-80
[3] = endpoint: mean survival time, dose: 400.0 mg/kg/injection, schedule: Q04DX003 (ip), vehicle: saline with Tween-80
[4] = endpoint: mean survival time, dose: 100.0 mg/kg/injection, schedule: Q01DX009 (ip), vehicle: saline with Tween-80
[5] = endpoint: mean survival time, dose: 200.0 mg/kg/injection, schedule: Q01DX009 (ip), vehicle: saline with Tween-80
[6] = endpoint: mean survival time, dose: 12.5 mg/kg/injection, schedule: Q01DX009 (ip), vehicle: saline
[7] = endpoint: mean survival time, dose: 25.0 mg/kg/injection, schedule: Q01DX009 (ip), vehicle: saline
[8] = endpoint: mean survival time, dose: 50.0 mg/kg/injection, schedule: Q01DX009 (ip), vehicle: saline
[9] = endpoint: mean survival time, dose: 100.0 mg/kg/injection, schedule: Q01DX009 (ip), vehicle: saline
[10] = endpoint: mean survival time, dose: 200.0 mg/kg/injection, schedule: Q01DX009 (ip), vehicle: saline
[11] = endpoint: mean survival time, dose: 400.0 mg/kg/injection, schedule: Q01DX009 (ip), vehicle: saline

Measured: T/C

Cn1c(=O)c2[n-]cnc2n(C)c1=O.[NH2-].[NH2-].[NH2-].[NH2-].[NH2-].[Ru+6]
inactive: endpoint: mean survival time, dose: 6.25 mg/kg/injection, schedule: Q04DX003 (ip), vehicle: water 106 % of control | endpoint: mean survival time, dose: 12.5 mg/kg/injection, schedule: Q04DX003 (ip), vehicle: water 102 % of control | endpoint: mean survival time, dose: 25.0 mg/kg/injection, schedule: Q04DX003 (ip), vehicle: water 104 % of control | endpoint: mean survival time, dose: 50.0 mg/kg/injection, schedule: Q04DX003 (ip), vehicle: water 104 % of control | endpoint: mean survival time, dose: 100.0 mg/kg/injection, schedule: Q04DX003 (ip), vehicle: water 104 % of control

CN(C)C(=S)Oc1ccc(S(=O)(=O)F)cc1
inactive: endpoint: mean survival time, dose: 100.0 mg/kg/injection, schedule: Q04DX002 (ip), vehicle: saline with Tween-80 98 % of control | endpoint: mean survival time, dose: 200.0 mg/kg/injection, schedule: Q04DX002 (ip), vehicle: saline with Tween-80 91 % of control | endpoint: mean survival time, dose: 400.0 mg/kg/injection, schedule: Q04DX002 (ip), vehicle: saline with Tween-80 109 % of control

COC(=O)C(CC(C)C)NC(=O)c1ccccc1 (configuration not stated)
inactive: [1] 98 % of control | [2] 97 % of control | [3] 95 % of control

O=[N+]([O-])c1ccc(Cl)c(P(=O)(O)c2cc([N+](=O)[O-])ccc2Cl)c1
inactive: endpoint: mean survival time, dose: 50.0 mg/kg/injection, schedule: Q04DX003 (ip), vehicle: saline 100 % of control | endpoint: mean survival time, dose: 100.0 mg/kg/injection, schedule: Q04DX003 (ip), vehicle: saline 101 % of control | endpoint: mean survival time, dose: 200.0 mg/kg/injection, schedule: Q04DX003 (ip), vehicle: saline 100 % of control

CC1(C)N=C(N)N=C(N)N1c1ccc(CCc2ccccc2)cc1
inactive: endpoint: mean survival time, dose: 12.5 mg/kg/injection, schedule: Q01DX009 (ip), vehicle: saline with Tween-80 95 % of control | endpoint: mean survival time, dose: 25.0 mg/kg/injection, schedule: Q01DX009 (ip), vehicle: saline with Tween-80 87 % of control

CCCCCC(CN(C)C)C(/C=C/c1ccccc1)OC(=O)c1ccc([N+](=O)[O-])cc1 (configuration not stated)
inactive: [4] 97 % of control | [1] 90 % of control | [5] 100 % of control | [2] 105 % of control | [3] 106 % of control

Cc1ccc([N+](=O)[O-])cc1NC(=O)Nc1ncccn1
inactive: endpoint: mean survival time, dose: 50.0 mg/kg/injection, schedule: Q01DX009 (ip), vehicle: Klucel (hydroxypropylcellulose) (HPC) 93 % of control | endpoint: mean survival time, dose: 100.0 mg/kg/injection, schedule: Q01DX009 (ip), vehicle: Klucel (hydroxypropylcellulose) (HPC) 96 % of control | endpoint: mean survival time, dose: 200.0 mg/kg/injection, schedule: Q01DX009 (ip), vehicle: Klucel (hydroxypropylcellulose) (HPC) 93 % of control

COc1ccc2[nH]c(=O)c3c(c2c1)CCC(OC(=O)c1ccccc1)C3 (configuration not stated)
inactive: [6] 104 % of control | endpoint: mean survival time, dose: 18.8 mg/kg/injection, schedule: Q04DX003 (ip), vehicle: saline 104 % of control | [7] 97 % of control | endpoint: mean survival time, dose: 37.5 mg/kg/injection, schedule: Q04DX003 (ip), vehicle: saline 101 % of control | [8] 98 % of control | endpoint: mean survival time, dose: 75.0 mg/kg/injection, schedule: Q04DX003 (ip), vehicle: saline 97 % of control

CC1C=C(Br)C(=O)C(n2cnc3c(=O)n(C)c(=O)n(C)c32)O1 (configuration not stated)
inactive: endpoint: mean survival time, dose: 12.5 mg/kg/injection, schedule: Q01DX005 (ip), vehicle: distilled water + Tween-80 100 % of control | endpoint: mean survival time, dose: 25.0 mg/kg/injection, schedule: Q01DX005 (ip), vehicle: distilled water + Tween-80 97 % of control

O=C1NC(=O)/C(=C/c2ccccc2)N1
inactive: endpoint: mean survival time, dose: 75.0 mg/kg/injection, schedule: Q04DX003 (ip), vehicle: saline sonified 100 % of control | endpoint: mean survival time, dose: 150.0 mg/kg/injection, schedule: Q04DX003 (ip), vehicle: saline sonified 105 % of control | endpoint: mean survival time, dose: 300.0 mg/kg/injection, schedule: Q04DX003 (ip), vehicle: saline sonified 105 % of control

O=C1c2ccccc2C(=O)c2cc(S(=O)(=O)Cl)ccc21
inactive: [9] 99 % of control | [10] 92 % of control | [11] 86 % of control

CN(Cc1cnc2nc(N)nc(N)c2n1)c1ccc(C(=O)NC(CCC(=O)O)C(=O)NCC(=O)O)cc1 (configuration not stated)
inactive: endpoint: mean survival time, dose: 1.0 mg/kg/injection, schedule: Q01DX009 (ip), vehicle: sodium bicarbonate 103 % of control | endpoint: mean survival time, dose: 2.0 mg/kg/injection, schedule: Q01DX009 (ip), vehicle: sodium bicarbonate 109 % of control | endpoint: mean survival time, dose: 5.0 mg/kg/injection, schedule: Q01DX009 (ip), vehicle: sodium bicarbonate 102 % of control | endpoint: mean survival time, dose: 10.0 mg/kg/injection, schedule: Q01DX009 (ip), vehicle: sodium bicarbonate 108 % of control

OC1(c2ccccc2)CCN(C/C=C/c2ccc(Cl)cc2)CC1
inactive: endpoint: median survival time, dose: 25.0 mg/kg/injection, schedule: Q04DX003 (ip), vehicle: saline with Tween-80 100 % of control | endpoint: median survival time, dose: 50.0 mg/kg/injection, schedule: Q04DX003 (ip), vehicle: saline with Tween-80 90 % of control

Cc1ccc(S(=O)(=O)OCCc2cccc3ccccc23)cc1
inactive: endpoint: mean survival time, dose: 100.0 mg/kg/injection, schedule: Q01DX001 (ip), vehicle: saline 101 % of control | endpoint: mean survival time, dose: 200.0 mg/kg/injection, schedule: Q01DX001 (ip), vehicle: saline 101 % of control | endpoint: mean survival time, dose: 400.0 mg/kg/injection, schedule: Q01DX001 (ip), vehicle: saline 98 % of control

c1ccc2c(c1)ccn2CCCCn1ccc2ccccc21
inactive: endpoint: mean survival time, dose: 50.0 mg/kg/injection, schedule: Q01DX009 (ip), vehicle: saline with Tween-80 101 % of control | [4] 101 % of control | [5] 101 % of control

Cn1cnc([N+](=O)[O-])c1Sc1ncn[nH]1
inactive: [6] 104 % of control | endpoint: mean survival time, dose: 12.5 mg/kg/injection, schedule: Q01DX009 (ip), vehicle: suspension in saline 101 % of control | [7] 107 % of control | endpoint: mean survival time, dose: 25.0 mg/kg/injection, schedule: Q01DX009 (ip), vehicle: suspension in saline 104 % of control | [8] 104 % of control | endpoint: mean survival time, dose: 50.0 mg/kg/injection, schedule: Q01DX009 (ip), vehicle: suspension in saline 104 % of control | [9] 102 % of control | endpoint: mean survival time, dose: 100.0 mg/kg/injection, schedule: Q01DX009 (ip), vehicle: suspension in saline 106 % of control | [10] 107 % of control | [11] 104 % of control

CCOC(=O)CC(=O)C(F)(F)F.[Cu+2]
inactive: endpoint: mean survival time, dose: 2.5 mg/kg/injection, schedule: Q01DX009 (ip), vehicle: saline with Tween-80 98 % of control | endpoint: mean survival time, dose: 5.0 mg/kg/injection, schedule: Q01DX009 (ip), vehicle: saline with Tween-80 98 % of control | endpoint: mean survival time, dose: 10.0 mg/kg/injection, schedule: Q01DX009 (ip), vehicle: saline with Tween-80 95 % of control

Clc1cccc(-n2ccnc2)c1
inactive: [4] 109 % of control | [5] 113 % of control

CCCCCC/C=C\C(=O)O
inactive: [8] 101 % of control | [9] 97 % of control | [1] 98 % of control | [10] 93 % of control | [2] 93 % of control | [3] 87 % of control

CC1=C(C)CS(=O)(=O)C1
inactive: [1] 95 % of control

ClC1(Cl)C2CCCCC21 (configuration not stated)
inactive: endpoint: mean survival time, dose: 50.0 mg/kg/injection, schedule: Q01DX009 (ip), vehicle: saline sonified 98 % of control | endpoint: mean survival time, dose: 100.0 mg/kg/injection, schedule: Q01DX009 (ip), vehicle: saline sonified 98 % of control | [1] 98 % of control | endpoint: mean survival time, dose: 200.0 mg/kg/injection, schedule: Q01DX009 (ip), vehicle: saline sonified 97 % of control | [2] 97 % of control

COc1cc2c(cc1OC)C1Cc3ccc4cc(OC)c(OC)cc4c3CN1CC2 (configuration not stated)
inactive: [9] 94 % of control | [1] 102 % of control | [2] 93 % of control | [3] 94 % of control

O=C(c1ccccc1)N(C(=O)c1ccccc1)C1CCCCC1
inactive: [1] 100 % of control | [2] 94 % of control | [3] 93 % of control

CC(=O)C1CCC2C3=CC=C4CC(OC(=O)CCC(C)C)CCC4(C)C3CCC12C (configuration not stated)
inactive: [4] 105 % of control | [5] 97 % of control | endpoint: mean survival time, dose: 400.0 mg/kg/injection, schedule: Q01DX009 (ip), vehicle: saline with Tween-80 101 % of control
